# Measurements as given in US11771712B2, “Carborane compounds and methods of use thereof” (OHIO STATE INNOVATION FOUNDATION, priority 2015, dated 2023).
# pEC50, pIC50: −log10 of the molar value. Like-named read-outs stand apart in the source and are kept apart here.
# Columns and labels:
# [1] = system: HEK293 cells; experiment: HEK293 viability assay (ATPlite 1step); type: cell-based, human; details: non-transfected HEK293, 24 h, ATP level; for HEK293 viability IC50 (μM): Low = activity detected but too low for exact value
# Procedure: The non-transfected HEK293 cells were seeded to the 384-well plates at 5000 cell/well, compounds were added and the timing of all subsequent steps was exactly the same as in the reporter assays. […] After 24 h of compound incubation with cells, the viability of cells was measured by determining the ATP level in the samples using luciferase cell viability assay, ATPlite 1step (Perkin Elmer, USA).
# [2] = molecular target: T1, Human full-length ERβ (Homo sapiens, UniProt Q92731); experiment: ERβ cell-based luciferase reporter assay, agonist mode, transiently transfected HEK293 cells
# T1 construct: expression vector encoding human full-length ERα or ERβ; expressed in transfected cells; host or cells: HEK293, transiently transfected
# T1 sequence (Q92731 whole entry): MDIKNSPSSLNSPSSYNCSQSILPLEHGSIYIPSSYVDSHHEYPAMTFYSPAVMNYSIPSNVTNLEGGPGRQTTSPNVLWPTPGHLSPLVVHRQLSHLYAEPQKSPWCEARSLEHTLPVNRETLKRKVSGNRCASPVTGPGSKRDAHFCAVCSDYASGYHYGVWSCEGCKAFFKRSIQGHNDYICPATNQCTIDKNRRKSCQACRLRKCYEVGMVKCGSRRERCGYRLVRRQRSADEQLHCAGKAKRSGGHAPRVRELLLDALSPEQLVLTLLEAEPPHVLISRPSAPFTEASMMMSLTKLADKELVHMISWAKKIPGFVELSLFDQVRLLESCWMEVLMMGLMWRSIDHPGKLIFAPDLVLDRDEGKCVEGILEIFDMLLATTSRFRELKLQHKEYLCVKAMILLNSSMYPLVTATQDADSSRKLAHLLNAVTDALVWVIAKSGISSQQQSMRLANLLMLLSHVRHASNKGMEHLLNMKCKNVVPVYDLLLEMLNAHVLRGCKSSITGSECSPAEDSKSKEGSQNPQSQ
# Procedure: (§1) The selectivity and potency of the various compounds was carried out via in vitro testing in ERα and ERβ cell-based reporter assays. The activity of the selected compounds was determined in the cell-based reporter assays in HEK293 cells.
# (§2) The HEK293 cells were propagated in a monolayer in phenol red-free DMEM supplemented with 10% fetal bovine serum, 2 mM Glutamax and penicillin/streptomycin (Thermo Fisher Scientific, MA, USA) and incubated in a 5% CO2 humidified atmosphere at 37° C. Right before transfection, the growth medium was changed to phenol red-free DMEM supplemented with 4% HyClone Fetal Bovine Serum, Charcoal/Dextran Treated (GE Healthcare Life Sciences, USA) and 2 mM Glutamax (starvation medium). The cells were transfected with the expression vector encoding human full-length ERα or ERβ and with the reporter vector containing 3 repeats of estrogen responsive elements (ERE) followed by the minimal thymidine kinase promoter from the herpes simplex virus in the pGL4 vector (Promega, USA). Luciferase served as a reporter gene. The transfection was carried out in 10 cm dishes (Nunc) in the starvation medium. After 24 hours, the cells were trypsinized, counted and seeded to cell culture treated, white, solid 1536-well plates (Corning Inc., NY, USA) at 1500 cells/well in 4 μl of total media volume. The compounds to be tested were diluted in DMSO and transferred to the cells using an acoustic dispenser Echo 520 (Labcyte). The compounds were tested at least at 12 different concentration points in the range from 10 μM to 100 pM, in triplicates. Luciferase activity was determined after 24 hours of incubation with compounds with Britelite plus luciferase reporter gene assay reagent (Perkin Elmer, USA), according to the manufacturer protocol. The luciferase signal was measured on an Envison multimode plate reader (Perkin Elmer, USA). Data were collected and processed using an in-house built LIMS system ScreenX and GraphPad Prism software. EC50 values were calculated using a regression function (dose response, variable slope).
# [3] = molecular target: T2, Human full-length GR (Homo sapiens, UniProt P04150); experiment: GR cell-based luciferase reporter assay, agonist and antagonist mode, stable U2OS reporter cells; details: agonist mode and antagonist mode (10 nM dexamethasone), 100 μM to 100 pM, 24 hours
# T2 sequence (P04150 1-777): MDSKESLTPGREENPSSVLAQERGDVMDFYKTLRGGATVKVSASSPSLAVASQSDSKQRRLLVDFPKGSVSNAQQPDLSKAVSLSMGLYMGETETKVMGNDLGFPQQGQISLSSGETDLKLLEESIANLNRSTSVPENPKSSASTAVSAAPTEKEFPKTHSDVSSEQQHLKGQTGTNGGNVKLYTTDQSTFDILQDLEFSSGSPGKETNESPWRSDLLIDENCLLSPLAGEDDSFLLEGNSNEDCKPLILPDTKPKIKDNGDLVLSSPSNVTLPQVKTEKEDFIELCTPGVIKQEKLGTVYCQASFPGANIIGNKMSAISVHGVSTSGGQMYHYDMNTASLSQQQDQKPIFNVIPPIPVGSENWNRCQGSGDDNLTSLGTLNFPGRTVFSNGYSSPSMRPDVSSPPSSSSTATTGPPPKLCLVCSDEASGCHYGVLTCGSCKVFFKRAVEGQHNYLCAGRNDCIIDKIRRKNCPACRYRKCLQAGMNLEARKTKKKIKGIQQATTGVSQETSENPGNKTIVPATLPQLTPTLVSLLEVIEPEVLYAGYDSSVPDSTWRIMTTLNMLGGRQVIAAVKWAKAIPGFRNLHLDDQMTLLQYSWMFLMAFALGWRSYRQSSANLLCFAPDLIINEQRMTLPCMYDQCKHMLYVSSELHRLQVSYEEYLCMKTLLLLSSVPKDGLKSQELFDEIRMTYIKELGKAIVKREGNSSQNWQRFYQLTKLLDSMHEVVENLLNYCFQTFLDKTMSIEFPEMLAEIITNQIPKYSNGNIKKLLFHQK
# [4] = molecular target: T3, Human full-length AR (Homo sapiens, UniProt P10275); experiment: AR cell-based luciferase reporter assay, agonist and antagonist mode, stable U2OS reporter cells; details: agonist mode and antagonist mode (2 nM dihydrotestosterone), 100 μM to 100 pM, 24 hours
# T3 sequence (P10275 1-920): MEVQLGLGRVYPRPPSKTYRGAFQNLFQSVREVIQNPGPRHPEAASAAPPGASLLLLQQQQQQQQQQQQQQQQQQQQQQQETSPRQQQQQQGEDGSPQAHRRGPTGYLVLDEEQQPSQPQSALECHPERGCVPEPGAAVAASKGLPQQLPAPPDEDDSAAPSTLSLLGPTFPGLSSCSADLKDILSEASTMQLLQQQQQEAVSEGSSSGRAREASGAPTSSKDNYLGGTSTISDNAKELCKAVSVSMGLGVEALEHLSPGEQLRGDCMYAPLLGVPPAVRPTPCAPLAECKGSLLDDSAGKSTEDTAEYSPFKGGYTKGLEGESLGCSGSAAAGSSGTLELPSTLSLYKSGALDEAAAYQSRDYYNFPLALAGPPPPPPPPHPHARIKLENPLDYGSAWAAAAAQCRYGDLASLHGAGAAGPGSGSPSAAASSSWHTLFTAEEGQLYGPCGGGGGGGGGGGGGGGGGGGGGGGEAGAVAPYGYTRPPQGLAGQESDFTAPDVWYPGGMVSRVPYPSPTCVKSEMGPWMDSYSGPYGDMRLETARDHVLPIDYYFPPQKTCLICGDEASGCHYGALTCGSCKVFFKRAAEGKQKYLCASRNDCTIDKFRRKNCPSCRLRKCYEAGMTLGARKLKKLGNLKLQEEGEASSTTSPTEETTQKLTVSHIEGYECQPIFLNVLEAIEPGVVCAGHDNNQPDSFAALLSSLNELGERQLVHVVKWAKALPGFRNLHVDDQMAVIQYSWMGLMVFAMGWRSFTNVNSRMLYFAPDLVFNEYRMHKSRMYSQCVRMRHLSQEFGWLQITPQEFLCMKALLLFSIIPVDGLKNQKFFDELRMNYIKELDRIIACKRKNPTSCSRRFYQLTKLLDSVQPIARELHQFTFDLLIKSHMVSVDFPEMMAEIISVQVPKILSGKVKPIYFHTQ
# [5] = molecular target: T4, Human full-length ERα (Homo sapiens, UniProt P03372); experiment: ERα cell-based luciferase reporter assay, agonist mode, transiently transfected HEK293 cells; details: 24 h
# T4 construct: expression vector encoding human full-length ERα or ERβ; expressed in transfected cells; host or cells: HEK293, transiently transfected
# T4 sequence (P03372 1-595): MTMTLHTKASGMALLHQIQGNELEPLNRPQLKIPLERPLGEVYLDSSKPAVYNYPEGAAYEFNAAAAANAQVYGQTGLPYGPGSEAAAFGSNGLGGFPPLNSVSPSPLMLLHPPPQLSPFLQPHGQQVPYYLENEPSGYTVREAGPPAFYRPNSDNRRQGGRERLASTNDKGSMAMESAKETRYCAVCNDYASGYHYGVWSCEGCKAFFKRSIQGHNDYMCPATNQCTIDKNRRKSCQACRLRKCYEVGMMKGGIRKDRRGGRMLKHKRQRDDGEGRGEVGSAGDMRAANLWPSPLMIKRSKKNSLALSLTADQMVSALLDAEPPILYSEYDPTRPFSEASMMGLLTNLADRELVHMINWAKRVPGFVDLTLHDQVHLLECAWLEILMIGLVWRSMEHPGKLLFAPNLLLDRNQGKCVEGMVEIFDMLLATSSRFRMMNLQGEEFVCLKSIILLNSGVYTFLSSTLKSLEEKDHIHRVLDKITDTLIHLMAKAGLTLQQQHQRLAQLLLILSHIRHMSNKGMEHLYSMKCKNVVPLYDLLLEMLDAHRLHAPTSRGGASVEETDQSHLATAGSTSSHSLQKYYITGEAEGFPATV
# Procedure: as §1, §2
# [6] = Trial 2 (believed more reliable)
molecule,measurement,setting,value
"1-(4-hydoxyphenyl)-12-(1-hydroxyheptyl)-1,12-dicarba-closo-dodecaborane [Compound 06]",pIC50,[1]; Trial 1,4.74
same,pIC50,[1]; [6],4.77
same,ERβ Efficacy (%),[2]; Trial 1,100%
same,ERβ Log(EC50) (M),"[2]; Trial 1, log10 of EC50",−7.71 M
same,pEC50,"[2]; Trial 1, read-out: ERβ EC50",7.72
same,ERβ Efficacy (%),[2]; [6],103%
same,ERβ Log(EC50) (M),"[2]; Trial 2 (believed more reliable), log10 of EC50",−7.76 M
same,pEC50,"[2]; Trial 2 (believed more reliable), read-out: ERβ EC50",7.77
same,pEC50,"[2]; differs from Table 5, luciferase reporter assay in HEK cells, read-out: EC50 at ERβ",8.30
same,agonistic or antagonistic activities on GR,[3],no agonistic or antagonistic activities
"C[C@]12CC[C@@H]3c4ccc(O)cc4CC[C@H]3[C@@H]1CC[C@@H]2O [Compound E2, Estradiol]",HEK293 viability IC50 (μM),[1],Low
same,agonistic or antagonistic activities on GR,[3],no agonistic or antagonistic activities
"N#CC(Cc1ccc(O)cc1)c1ccc(O)cc1 (centres unmarked) [DPN, Diarylpropionitrile]",agonistic or antagonistic activities on AR,[4],no agonistic or antagonistic activities
same,HEK293 viability IC50 (μM),[1],Low
same,agonistic or antagonistic activities on GR,[3],no agonistic or antagonistic activities
"CCCc1c(-c2ccc(O)cc2)nn(-c2ccc(O)cc2)c1-c1ccc(O)cc1 [PPT, Propyl pyrazole triol]",ERβ EC50 (nM),"[2]; 24 h, low = activity detected but too low for exact value",low
same,ERβ Log(EC50) (M),"[2]; log10 of EC50, negative values, 24 h, low = activity detected but too low for exact value",low
same,ERα Efficacy (%),[5],101%
same,pEC50,"[5]; low = activity detected but too low for exact value, read-out: ERα EC50",8.48
same,EC50,"[5]; log10 of EC50, negative values, low = activity detected but too low for exact value, read-out: ERα Log(EC50) (converted)",3.31 nM
